Earlier results in PMC6858927 (Investigational new drugs, 2019).

Tested on: AML cells with TKD mutants
Details: cited from earlier work

## CC(C)(C)c1cc(NC(=O)Nc2ccc(-c3cn4c(n3)sc3cc(OCCN5CCOCC5)ccc34)cc2)no1 [quizartinib]
  sensitivity of AML cells with TKD mutants: highly resistant

## CNC(=O)c1cc(Oc2ccc(NC(=O)Nc3ccc(Cl)c(C(F)(F)F)c3)cc2)ccn1 [sorafenib]
  sensitivity of AML cells with TKD mutants: highly resistant
